According to BindingDB's records for doi:10.1016/j.bmcl.2008.03.079 (Columbia University, 2008):

These compounds were tested against T1, Tyrosine-protein phosphatase non-receptor type 22 (Homo sapiens, UniProt Q9Y2R2) (assay: Inhibition of lymphoid specific tyrosine phosphatase).
T1 sequence (Q9Y2R2 whole entry): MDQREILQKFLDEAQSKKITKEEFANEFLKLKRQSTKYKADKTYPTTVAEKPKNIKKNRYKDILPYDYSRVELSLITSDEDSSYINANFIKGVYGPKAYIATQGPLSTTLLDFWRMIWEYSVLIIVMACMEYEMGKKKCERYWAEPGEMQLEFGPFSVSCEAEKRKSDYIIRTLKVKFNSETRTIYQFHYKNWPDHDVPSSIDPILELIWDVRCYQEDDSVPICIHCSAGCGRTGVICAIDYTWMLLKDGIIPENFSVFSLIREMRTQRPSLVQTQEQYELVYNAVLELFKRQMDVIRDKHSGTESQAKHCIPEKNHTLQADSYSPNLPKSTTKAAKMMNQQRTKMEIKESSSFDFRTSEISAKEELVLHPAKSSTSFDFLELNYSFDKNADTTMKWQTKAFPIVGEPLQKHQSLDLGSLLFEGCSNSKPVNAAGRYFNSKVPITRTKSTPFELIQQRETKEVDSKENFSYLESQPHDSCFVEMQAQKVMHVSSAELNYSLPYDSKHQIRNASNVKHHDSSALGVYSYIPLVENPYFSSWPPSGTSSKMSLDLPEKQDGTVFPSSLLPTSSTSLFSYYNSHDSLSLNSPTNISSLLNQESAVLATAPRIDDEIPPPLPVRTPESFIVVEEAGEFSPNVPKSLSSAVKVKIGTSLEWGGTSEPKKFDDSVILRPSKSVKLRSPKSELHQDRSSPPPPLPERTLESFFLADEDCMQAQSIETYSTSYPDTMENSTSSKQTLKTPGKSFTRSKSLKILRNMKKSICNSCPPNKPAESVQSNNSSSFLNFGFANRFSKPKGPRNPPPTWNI

IC50, > 44 µM:
COC(=O)c1cc(-c2ccc(C=Nn3cc(O)[nH]c3=O)o2)ccc1O
COC(=O)c1cc(-c2ccc(C=Nn3cc(O)[nH]c3=O)s2)ccc1O
O=C(O)c1cc(-c2ccc(C=Nn3cc(O)[nH]c3=O)o2)ccc1O
O=C(O)Cn1c(O)cn(N=Cc2ccc(-c3ccc(O)c(C(=O)O)c3)s2)c1=O
